{"source": "ChEMBL document CHEMBL4265986", "about": "“Structural exploration of cinnamate-based phosphonic acids as inhibitors of bacterial ureases” (Eur J Med Chem, 2018)", "key": {"[1]": {"assay": "Inhibition of Sporosarcina pasteurii CCM 2056 urease using urea as substrate after 10 mins by indophenol blue detection based phenol-hypochlorite method"}, "[2]": {"assay": "Inhibition of Sporosarcina pasteurii CCM 2056 urease using urea as substrate preincubated for 2 hrs by indophenol blue detection based phenol-hypochlorite method"}, "[3]": {"assay": "Inhibition of Proteus mirabilis PCM543 urease using urea as substrate preincubated for 2 hrs by indophenol blue detection based phenol-hypochlorite method"}, "[4]": {"test_system": "Proteus mirabilis", "assay": "Antimicrobial activity against Proteus mirabilis PCM543 assessed as inhibition of microbial proliferation preincubated for 2 hrs by MTT assay", "type": "functional"}, "[5]": {"assay": "Mixed type inhibition of Sporosarcina pasteurii CCM 2056 urease using urea as substrate preincubated for 2 hrs by indophenol blue detection based phenol-hypochlorite method"}, "[6]": {"test_system": "Sporosarcina pasteurii", "assay": "Slow binding inhibition of Sporosarcina pasteurii CCM 2056 urease assessed as dissociation rate constant using urea as substrate after 120 mins by indophenol blue detection based phenol-hypochlorite method"}, "[7]": {"test_system": "Sporosarcina pasteurii", "assay": "Slow binding inhibition of Sporosarcina pasteurii CCM 2056 urease assessed as residence time using urea as substrate after 120 mins by indophenol blue detection based phenol-hypochlorite method"}}, "data": [{"smiles": "O=C(O)/C(=C/c1ccc(Cl)cc1)CCCCP(=O)(O)O", "values": [{"measurement": "IC50", "setting": "[1]", "result": 5.83, "unit": "µM"}, {"measurement": "IC50", "setting": "[2]", "result": 2.34, "unit": "µM"}, {"measurement": "IC50", "setting": "[3]", "result": 22.2, "unit": "µM"}, {"measurement": "LC50", "setting": "[4]", "result": 435, "unit": "µM"}, {"measurement": "Ki", "setting": "[5]", "result": 1.75, "unit": "µM"}]}, {"smiles": "O=C(O)/C(=C/c1ccccc1)CCCP(=O)(O)O", "values": [{"measurement": "IC50", "setting": "[1]", "result": 3.1, "unit": "µM"}, {"measurement": "IC50", "setting": "[2]", "result": 0.743, "unit": "µM"}, {"measurement": "IC50", "setting": "[3]", "result": 11, "unit": "µM"}, {"measurement": "LC50", "setting": "[4]", "result": 135, "unit": "µM"}, {"measurement": "K", "setting": "[6]", "result": 0.000682, "unit": "s⁻¹"}, {"measurement": "TIME", "setting": "[7]", "result": 0.407, "unit": "h"}, {"measurement": "Ki", "setting": "[5]", "result": 0.509, "unit": "µM"}]}, {"smiles": "COC(=O)/C(=C/c1ccc(Cl)cc1)CCCP(=O)(O)O", "values": [{"measurement": "IC50", "setting": "[1]", "result": 109, "unit": "µM"}, {"measurement": "IC50", "setting": "[2]", "result": 49.8, "unit": "µM"}, {"measurement": "IC50", "setting": "[3]", "result": 521, "unit": "µM"}, {"measurement": "LC50", "setting": "[4]", "result": 89.6, "unit": "µM"}, {"measurement": "Ki", "setting": "[5]", "result": 42.5, "unit": "µM"}]}, {"smiles": "O=C(O)/C(=C/c1ccc(F)cc1)CCCCP(=O)(O)O", "values": [{"measurement": "IC50", "setting": "[1]", "result": 9.98, "unit": "µM"}, {"measurement": "IC50", "setting": "[2]", "result": 2.91, "unit": "µM"}, {"measurement": "IC50", "setting": "[3]", "result": 14.1, "unit": "µM"}, {"measurement": "LC50", "setting": "[4]", "result": 192, "unit": "µM"}, {"measurement": "K", "setting": "[6]", "result": 0.00135, "unit": "s⁻¹"}, {"measurement": "TIME", "setting": "[7]", "result": 0.206, "unit": "h"}, {"measurement": "Ki", "setting": "[5]", "result": 2.58, "unit": "µM"}]}, {"smiles": "O=C(O)/C(=C/c1ccc(F)cc1)CCCP(=O)(O)O", "values": [{"measurement": "IC50", "setting": "[1]", "result": 4.9, "unit": "µM"}, {"measurement": "IC50", "setting": "[2]", "result": 3.82, "unit": "µM"}, {"measurement": "IC50", "setting": "[3]", "result": 38, "unit": "µM"}, {"measurement": "LC50", "setting": "[4]", "result": 121, "unit": "µM"}, {"measurement": "Ki", "setting": "[5]", "result": 1.8, "unit": "µM"}]}, {"smiles": "COC(=O)/C(=C/c1ccc(OC)cc1)CCCCP(=O)(O)O", "values": [{"measurement": "IC50", "setting": "[1]", "result": 24.5, "unit": "µM"}, {"measurement": "IC50", "setting": "[2]", "result": 22.6, "unit": "µM"}, {"measurement": "IC50", "setting": "[3]", "result": 162, "unit": "µM"}, {"measurement": "LC50", "setting": "[4]", "result": 160, "unit": "µM"}, {"measurement": "Ki", "setting": "[5]", "result": 21.4, "unit": "µM"}]}, {"smiles": "COC(=O)/C(=C/c1ccc(C)cc1)CCCP(=O)(O)O", "values": [{"measurement": "IC50", "setting": "[1]", "result": 265, "unit": "µM"}, {"measurement": "IC50", "setting": "[2]", "result": 248, "unit": "µM"}, {"measurement": "IC50", "setting": "[3]", "result": 1430, "unit": "µM"}, {"measurement": "LC50", "setting": "[4]", "result": 292, "unit": "µM"}, {"measurement": "Ki", "setting": "[5]", "result": 227, "unit": "µM"}]}, {"smiles": "COC(=O)/C(=C/c1ccc(OC)cc1)CCCP(=O)(O)O", "values": [{"measurement": "IC50", "setting": "[1]", "result": 35.3, "unit": "µM"}, {"measurement": "IC50", "setting": "[2]", "result": 10.8, "unit": "µM"}, {"measurement": "IC50", "setting": "[3]", "result": 75.1, "unit": "µM"}, {"measurement": "LC50", "setting": "[4]", "result": 236, "unit": "µM"}, {"measurement": "K", "setting": "[6]", "result": 0.00244, "unit": "s⁻¹"}, {"measurement": "TIME", "setting": "[7]", "result": 0.114, "unit": "h"}, {"measurement": "Ki", "setting": "[5]", "result": 6.04, "unit": "µM"}]}, {"smiles": "COc1ccc(/C=C(\\CCCCP(=O)(O)O)C(=O)O)cc1", "values": [{"measurement": "IC50", "setting": "[1]", "result": 16.6, "unit": "µM"}, {"measurement": "IC50", "setting": "[2]", "result": 14.5, "unit": "µM"}, {"measurement": "IC50", "setting": "[3]", "result": 114, "unit": "µM"}, {"measurement": "LC50", "setting": "[4]", "result": 28.6, "unit": "µM"}, {"measurement": "Ki", "setting": "[5]", "result": 9.31, "unit": "µM"}]}, {"smiles": "Cc1ccc(/C=C(\\CCCCP(=O)(O)O)C(=O)O)cc1", "values": [{"measurement": "IC50", "setting": "[1]", "result": 9.24, "unit": "µM"}, {"measurement": "IC50", "setting": "[2]", "result": 8.53, "unit": "µM"}, {"measurement": "IC50", "setting": "[3]", "result": 52.6, "unit": "µM"}, {"measurement": "LC50", "setting": "[4]", "result": 49.8, "unit": "µM"}, {"measurement": "Ki", "setting": "[5]", "result": 7.21, "unit": "µM"}]}, {"smiles": "COC(=O)/C(=C/c1ccc(Cl)cc1)CCCCP(=O)(O)O", "values": [{"measurement": "IC50", "setting": "[1]", "result": 58.3, "unit": "µM"}, {"measurement": "IC50", "setting": "[2]", "result": 6.35, "unit": "µM"}, {"measurement": "IC50", "setting": "[3]", "result": 27.4, "unit": "µM"}, {"measurement": "LC50", "setting": "[4]", "result": 638, "unit": "µM"}, {"measurement": "K", "setting": "[6]", "result": 0.00206, "unit": "s⁻¹"}, {"measurement": "TIME", "setting": "[7]", "result": 0.135, "unit": "h"}, {"measurement": "Ki", "setting": "[5]", "result": 4.71, "unit": "µM"}]}, {"smiles": "COc1ccc(/C=C(\\CCCP(=O)(O)O)C(=O)O)cc1", "values": [{"measurement": "IC50", "setting": "[1]", "result": 10, "unit": "µM"}, {"measurement": "IC50", "setting": "[2]", "result": 4.98, "unit": "µM"}, {"measurement": "IC50", "setting": "[3]", "result": 39.7, "unit": "µM"}, {"measurement": "LC50", "setting": "[4]", "result": 65.2, "unit": "µM"}, {"measurement": "Ki", "setting": "[5]", "result": 3.4, "unit": "µM"}]}, {"smiles": "COC(=O)/C(=C/c1ccc(C)cc1)CCCCP(=O)(O)O", "values": [{"measurement": "IC50", "setting": "[1]", "result": 294, "unit": "µM"}, {"measurement": "IC50", "setting": "[2]", "result": 261, "unit": "µM"}, {"measurement": "IC50", "setting": "[3]", "result": 1550, "unit": "µM"}, {"measurement": "LC50", "setting": "[4]", "result": 659, "unit": "µM"}, {"measurement": "Ki", "setting": "[5]", "result": 219, "unit": "µM"}]}, {"smiles": "O=C(O)/C(=C/c1ccc(Cl)cc1)CCCP(=O)(O)O", "values": [{"measurement": "IC50", "setting": "[1]", "result": 2.49, "unit": "µM"}, {"measurement": "IC50", "setting": "[2]", "result": 1.62, "unit": "µM"}, {"measurement": "IC50", "setting": "[3]", "result": 18.6, "unit": "µM"}, {"measurement": "LC50", "setting": "[4]", "result": 122, "unit": "µM"}, {"measurement": "Ki", "setting": "[5]", "result": 1.43, "unit": "µM"}]}, {"smiles": "O=C(O)/C(=C/c1ccccc1)CCCCP(=O)(O)O", "values": [{"measurement": "IC50", "setting": "[1]", "result": 4.89, "unit": "µM"}, {"measurement": "IC50", "setting": "[2]", "result": 3.83, "unit": "µM"}, {"measurement": "IC50", "setting": "[3]", "result": 32.6, "unit": "µM"}, {"measurement": "LC50", "setting": "[4]", "result": 97.6, "unit": "µM"}, {"measurement": "Ki", "setting": "[5]", "result": 3.51, "unit": "µM"}]}, {"smiles": "Cc1ccc(/C=C(\\CCCP(=O)(O)O)C(=O)O)cc1", "values": [{"measurement": "IC50", "setting": "[1]", "result": 30, "unit": "µM"}, {"measurement": "IC50", "setting": "[2]", "result": 24.6, "unit": "µM"}, {"measurement": "IC50", "setting": "[3]", "result": 156, "unit": "µM"}, {"measurement": "LC50", "setting": "[4]", "result": 139, "unit": "µM"}, {"measurement": "Ki", "setting": "[5]", "result": 19.4, "unit": "µM"}]}, {"smiles": "COC(=O)/C(=C/c1ccc(F)cc1)CCCP(=O)(O)O", "values": [{"measurement": "IC50", "setting": "[1]", "result": 221, "unit": "µM"}, {"measurement": "IC50", "setting": "[2]", "result": 105, "unit": "µM"}, {"measurement": "IC50", "setting": "[3]", "result": 735, "unit": "µM"}, {"measurement": "LC50", "setting": "[4]", "result": 215, "unit": "µM"}, {"measurement": "Ki", "setting": "[5]", "result": 87.2, "unit": "µM"}]}, {"smiles": "COC(=O)/C(=C/c1ccccc1)CCCP(=O)(O)O", "values": [{"measurement": "IC50", "setting": "[1]", "result": 449, "unit": "µM"}, {"measurement": "IC50", "setting": "[2]", "result": 328, "unit": "µM"}, {"measurement": "IC50", "setting": "[3]", "result": 1590, "unit": "µM"}, {"measurement": "LC50", "setting": "[4]", "result": 556, "unit": "µM"}, {"measurement": "Ki", "setting": "[5]", "result": 289, "unit": "µM"}]}, {"smiles": "COC(=O)/C(=C/c1ccccc1)CCCCP(=O)(O)O", "values": [{"measurement": "IC50", "setting": "[1]", "result": 55, "unit": "µM"}, {"measurement": "IC50", "setting": "[2]", "result": 54, "unit": "µM"}, {"measurement": "IC50", "setting": "[3]", "result": 476, "unit": "µM"}, {"measurement": "LC50", "setting": "[4]", "result": 469, "unit": "µM"}, {"measurement": "Ki", "setting": "[5]", "result": 50.5, "unit": "µM"}]}, {"smiles": "COC(=O)/C(=C/c1ccc(F)cc1)CCCCP(=O)(O)O", "values": [{"measurement": "IC50", "setting": "[1]", "result": 164, "unit": "µM"}, {"measurement": "IC50", "setting": "[2]", "result": 130, "unit": "µM"}, {"measurement": "IC50", "setting": "[3]", "result": 630, "unit": "µM"}, {"measurement": "LC50", "setting": "[4]", "result": 1060, "unit": "µM"}, {"measurement": "Ki", "setting": "[5]", "result": 116, "unit": "µM"}]}]}
